Values quoted from earlier work in patent publication US6900176B2, “Pest control agents/depsipeptides” (priority 1999, dated 2005).

Tested on: silkworms
Settings: known from the literature (Kanaoka et al. 1979; JP 05 271 013)

Row | Compound | insecticidal activity against silkworms
1 | CC(C)C[C@H]1C(=O)O[C@H](Cc2ccccc2)C(=O)N(C)[C@@H](CC(C)C)C(=O)O[C@H](C)C(=O)N(C)[C@@H](CC(C)C)C(=O)O[C@H](Cc2ccccc2)C(=O)N(C)[C@@H](CC(C)C)C(=O)O[C@H](C)C(=O)N1C [PF1022A] | insecticidal activity
2 | CC(C)C[C@H]1C(=O)O[C@H](C(C)C)C(=O)N(C)[C@@H](CC(C)C)C(=O)O[C@H](C(C)C)C(=O)N(C)[C@@H](CC(C)C)C(=O)O[C@H](C(C)C)C(=O)N(C)[C@@H](CC(C)C)C(=O)O[C@H](C(C)C)C(=O)N1C [bassianolide] | insecticidal activity
